Ki data for 40 compounds are collected here from patent publication US20190345146A1, “NITROGEN CONTAINING BICYCLIC DERIVATIVES FOR TREATING PAIN AND PAIN RELATED CONDITIONS” (ESTEVE PHARMACEUTICALS, S.A., priority 2016, published 2019).

Some results are limits rather than exact numbers.

Sequence of human α2δ-1 subunit of Cav2.2 calcium channel (P54289 25-1103): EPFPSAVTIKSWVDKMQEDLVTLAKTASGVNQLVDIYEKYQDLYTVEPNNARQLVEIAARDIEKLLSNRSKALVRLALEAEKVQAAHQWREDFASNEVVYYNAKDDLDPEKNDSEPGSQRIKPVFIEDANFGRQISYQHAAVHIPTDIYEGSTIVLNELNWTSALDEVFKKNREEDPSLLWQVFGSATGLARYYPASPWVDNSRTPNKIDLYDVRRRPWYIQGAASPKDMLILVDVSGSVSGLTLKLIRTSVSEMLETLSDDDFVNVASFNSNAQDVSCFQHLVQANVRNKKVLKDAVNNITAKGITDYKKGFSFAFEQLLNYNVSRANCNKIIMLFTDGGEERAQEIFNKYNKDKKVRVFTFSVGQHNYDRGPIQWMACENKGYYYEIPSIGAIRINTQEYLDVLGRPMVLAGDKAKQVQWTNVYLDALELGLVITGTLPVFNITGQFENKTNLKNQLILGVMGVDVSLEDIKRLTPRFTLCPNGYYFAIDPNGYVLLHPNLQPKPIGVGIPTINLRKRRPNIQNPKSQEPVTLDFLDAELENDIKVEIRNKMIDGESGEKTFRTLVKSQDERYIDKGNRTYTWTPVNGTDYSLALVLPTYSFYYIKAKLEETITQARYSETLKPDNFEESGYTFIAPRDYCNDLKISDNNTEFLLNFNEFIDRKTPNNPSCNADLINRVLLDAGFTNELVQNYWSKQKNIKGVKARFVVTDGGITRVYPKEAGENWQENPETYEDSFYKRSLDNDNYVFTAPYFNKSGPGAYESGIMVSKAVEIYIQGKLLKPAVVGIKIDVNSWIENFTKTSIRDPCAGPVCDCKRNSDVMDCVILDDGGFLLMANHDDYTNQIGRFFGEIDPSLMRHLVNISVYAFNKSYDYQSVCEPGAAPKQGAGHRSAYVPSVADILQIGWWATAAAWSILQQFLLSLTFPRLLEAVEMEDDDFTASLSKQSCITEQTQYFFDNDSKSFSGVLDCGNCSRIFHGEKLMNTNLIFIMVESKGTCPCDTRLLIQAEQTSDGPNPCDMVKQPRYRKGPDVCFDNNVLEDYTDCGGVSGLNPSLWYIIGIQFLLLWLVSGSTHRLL

The target in the test is human α2δ-1 subunit of Cav2.2 calcium channel (Homo sapiens, UniProt P54289). Put plainly: Binding assay to human α2δ-1 subunit of Cav2.2 calcium channel ([3H]-Gabapentin). The note with it: Table 1, human α2δ-1 enriched membranes, read-out: Ki(nM) alpha2delta Hum. Here is the method:
• Binding assay to human α2δ-1 subunit of Cav2.2 calcium channel.
Human α2δ-1 enriched membranes (2.5 μg) were incubated with 15 nM of radiolabeled [3H]-Gabapentin in assay buffer containing Hepes-KOH 10 mM, pH 7.4.
NSB (non specific binding) was measured by adding 10 μM pregabalin. The binding of the test compound was measured at five different concentrations. After 60 min of incubation at 27° C., the binding reaction was terminated by filtering through Multiscreen GF/C (Millipore) presoaked in 0.5% polyethyleneimine in Vacuum Manifold Station, followed by 3 washes with ice-cold filtration buffer containing 50 mM Tris-HCl, pH 7.4.
Filter plates were dried at 60° C. for 1 h and 30 μl of scintillation cocktail were added to each well before radioactivity reading.
Readings were performed in a Trilux 1450 Microbeta radioactive counter (Perkin Elmer). • Binding assay to human norepinephrine transporter (NET).
Take `CNCC[C@@H](Oc1cccc2ncncc12)c1cccs1` [Example 37, (R)-N-methyl-3-(quinazolin-5-yloxy)-3-(thiophen-2-yl)propan-1-amine]: the Ki was less than 100 nM.

On to `CCNCC[C@@H](Oc1cc(C)cc2c(=O)n(C)cnc12)c1cccs1` [Example 44, (R)-8-(3-(ethylamino)-1-(thiophen-2-yl)propoxy)-3,6-dimethylquinazolin-4(3H)-one], for which the Ki lay in the range of 100 to 500 nM.

In the case of `CCNCCC(Oc1cccc2cnncc12)c1cccs1` (stereo not shown) [Example 12, N-ethyl-3-(phthalazin-5-yloxy)-3-(thiophen-2-yl)propan-1-amine], the Ki is 100 to 500 nM.

Turning to `CNCC[C@H](Oc1cccc2cnncc12)c1cccs1` [Example 5, (S)-N-methyl-3-(phthalazin-5-yloxy)-3-(thiophen-2-yl)propan-1-amine], the Ki is no less than 3000 nM.

Turning to `CCNCC[C@@H](Oc1cccc2ncncc12)c1ccsc1` [Example 40, (R)-N-ethyl-3-(quinazolin-5-yloxy)-3-(thiophen-3-yl)propan-1-amine], the Ki was less than 100 nM.

Regarding `CNCCC(Oc1cccc2c1CCN(C)C2)c1cccs1` (stereo not shown) [Example 2, N-methyl-3-((2-methyl-1,2,3,4-tetrahydroisoquinolin-5-yl)oxy)-3-(thiophen-2-yl)propan-1-amine], the Ki is less than 100 nM.

On to `CCNCC[C@H](Oc1cccc2c(=O)n(C)ccc12)c1cccs1` [Example 35, (S)-5-(3-(ethylamino)-1-(thiophen-2-yl)propoxy)-2-methylisoquinolin-1(2H)-one], for which the Ki was 500 to 3000 nM.

`CNCCC(Oc1cccc2c(=O)n(C)cnc12)c1cccs1` (stereo not shown) [Example 8, 3-methyl-8-(3-(methylamino)-1-(thiophen-2-yl)propoxy)quinazolin-4(3H)-one]: the Ki was in the range of 100 to 500 nM.

Take `CCNCCC(Oc1cccc2cnncc12)c1ccccc1` (stereo not shown) [Example 11, N-ethyl-3-phenyl-3-(phthalazin-5-yloxy)propan-1-amine]: the Ki was 500 to 3000 nM.

On to `CNCC[C@@H](Oc1cccc2cnncc12)c1cccs1` [Example 4, (R)—N-Methyl-3-(phthalazin-5-yloxy)-3-(thiophen-2-yl)propan-1-amine], for which the Ki was 100 to 500 nM.

Turning to `CCNCC[C@@H](Oc1cccc2c(=O)n(C)cnc12)c1ccsc1` [Example 41, (R)-8-(3-(ethylamino)-1-(thiophen-3-yl)propoxy)-3-methylquinazolin-4(3H)-one], the Ki is less than 100 nM.

Regarding `CCNCC[C@@H](Oc1cccc2c(=O)n(C)ccc12)c1cccs1` [Example 31, (R)-5-(3-(ethylamino)-1-(thiophen-2-yl)propoxy)-2-methylisoquinolin-1(2H)-one], the Ki is less than 100 nM.

Take `CNCC[C@@H](Oc1cccc2ncn(C)c(=O)c12)c1ccsc1` [Example 43, (R)-3-methyl-5-(3-(methylamino)-1-(thiophen-3-yl)propoxyl)quinazolin-4(3H)-one]: the Ki lay in the range of 100 to 500 nM.

Turning to `CNCCC(OCc1cccc2ccncc12)c1ccccc1` (stereo not shown) [Example 18, 3-(isoquinolin-8-ylmethoxy)-N-methyl-3-phenylpropan-1-amine], the Ki was no less than 3000 nM.

Consider `CNCC[C@H](Oc1cccc2ncncc12)c1cccs1` [Example 33, (S)-N-methyl-3-(quinazolin-5-yloxy)-3-(thiophen-2-yl)propan-1-amine], for which the Ki was 100 to 500 nM.

`CCNCC[C@@H](Oc1cccc2c(=O)n(C)ccc12)c1ccsc1` [Example 42, (R)-5-(3-(ethylamino)-1-(thiophen-3-yl)propoxy)-2-methylisoquinolin-1(2H)-one]: the Ki was less than 100 nM.

As for `CNCCC(OCc1cccc2ccncc12)c1cccs1` (stereo not shown) [Example 20, 3-(Isoquinolin-8-ylmethoxy)-N-methyl-3-(thiophen-2-yl)propan-1-amine], the Ki was no less than 3000 nM.

For the compound `CNCCC(Oc1cccc2c(=O)n(C)ccc12)c1cccs1` (stereo not shown) [Example 9, 2-methyl-5-(3-(methylamino)-1-(thiophen-2-yl)propoxy)isoquinolin-1(2H)-one], the Ki was in the range of 100 to 500 nM.

For `CCNCC[C@@H](Oc1cccc2ncn(C)c(=O)c12)c1cccs1` [Example 30, (R)-5-(3-(ethylamino)-1-(thiophen-2-yl)propoxy)-3-methylquinazolin-4(3H)-one], the Ki was less than 100 nM.

For the compound `CCNCC[C@H](Oc1cccc2ncn(C)c(=O)c12)c1cccs1` [Example 36, (S)-5-(3-(ethylamino)-1-(thiophen-2-yl)propoxy)-3-methylquinazolin-4(3H)-one], the Ki was no less than 3000 nM.

`CNCC[C@@H](Oc1cccc2c1CCCN2C)c1cccs1` [Example 24, (R)—N-methyl-3-((1-methyl-1,2,3,4-tetrahydroquinolin-5-yl)oxy)-3-(thiophen-2-yl)propan-1-amine]: the Ki fell in the range of 100 to 500 nM.

With `CNCC[C@H](Oc1cccc2c1CCN(C)C2)c1cccs1` [Example 25, (S)—N-methyl-3-((2-methyl-1,2,3,4-tetrahydroisoquinolin-5-yl)oxy)-3-(thiophen-2-yl)propan-1-amine], the Ki lay in the range of 100 to 500 nM.

On to `CCNCC[C@H](Oc1cccc2c(=O)n(C)cnc12)c1cccs1` [Example 34, (S)-8-(3-(ethylamino)-1-(thiophen-2-yl)propoxy)-3-methylquinazolin-4(3H)-one], for which the Ki was no less than 3000 nM.

In the case of `CCNCC[C@@H](Oc1cccc2cnncc12)c1ccccc1` [Example 13, (R)-N-ethyl-3-phenyl-3-(phthalazin-5-yloxy)propan-1-amine], the Ki was 500 to 3000 nM.

In the case of `CCNCC[C@@H](Oc1cccc2cnncc12)c1cccs1` [Example 14, (R)-N-ethyl-3-(phthalazin-5-yloxy)-3-(thiophen-2-yl)propan-1-amine], the Ki was less than 100 nM.

For `CNCC[C@@H](Oc1cc(F)cc2ncn(C)c(=O)c12)c1cccs1` [Example 45, (R)-7-fluoro-3-methyl-5-(3-(methylamino)-1-(thiophen-2-yl)propoxyl)quinazolin-4(3H)-one], the Ki lay within 100 to 500 nM.

With `CCNCCC(Oc1cccc2c1CCN(C)C2)c1cccs1` (stereo not shown) [Example 27, N-ethyl-3-((2-methyl-1,2,3,4-tetrahydroisoquinolin-5-yl)oxy)-3-(thiophen-2-yl)propan-1-amine], the Ki was less than 100 nM.

Turning to `CNCCC(OCc1cccc2cnccc12)c1ccccc1` (stereo not shown) [Example 17, 3-(Isoquinolin-5-ylmethoxy)-N-methyl-3-phenylpropan-1-amine], the Ki is no less than 3000 nM.

On to `CNCC[C@@H](Oc1cccc2c1ccc(=O)n2C)c1cccs1` [Example 29, (R)-1-methyl-5-(3-(methylamino)-1-(thiophen-2-yl)propoxy)quinolin-2(1H)-one], for which the Ki lay in the range of 100 to 500 nM.

On to `CNCCC(OCc1cccc2cnccc12)c1cccs1` (stereo not shown) [Example 21, 3-(isoquinolin-5-ylmethoxy)-N-methyl-3-(thiophen-2-yl)propan-1-amine], for which the Ki was no less than 3000 nM.

Regarding `CNCCC(Oc1cccc2cnncc12)c1cccs1` (stereo not shown) [Example 6, N-methyl-3-(phthalazin-5-yloxy)-3-(thiophen-2-yl)propan-1-amine], the Ki was less than 100 nM.

Turning to `CNCC[C@@H](Oc1cccc2c1CCN(C)C2)c1cccs1` [Example 26, (R)—N-methyl-3-((2-methyl-1,2,3,4-tetrahydroisoquinolin-5-yl)oxy)-3-(thiophen-2-yl)propan-1-amine], the Ki was less than 100 nM.

`CNCCC(OCc1cccc2ncccc12)c1cccs1` (stereo not shown) [Example 22, N-methyl-3-(quinolin-5-ylmethoxy)-3-(thiophen-2-yl)propan-1-amine]: the Ki is no less than 3000 nM.

As for `CCNCC[C@H](Oc1cccc2ncncc12)c1cccs1` [Example 38, (S)-N-ethyl-3-(quinazolin-5-yloxy)-3-(thiophen-2-yl)propan-1-amine], the Ki lay within 500 to 3000 nM.

For the compound `CCNCC[C@@H](Oc1cccc2ncncc12)c1cccs1` [Example 39, (R)-N-ethyl-3-(quinazolin-5-yloxy)-3-(thiophen-2-yl)propan-1-amine], the Ki fell in the range of 100 to 500 nM.

For the compound `CNCCC(Oc1cccc2ncn(C)c(=O)c12)c1cccs1` (stereo not shown) [Example 7, 3-methyl-5-(3-(methylamino)-1-(thiophen-2-yl)propoxy)quinazolin-4(3H)-one], the Ki is 100 to 500 nM.

As for `CNCCC(OCc1cccc2ncccc12)c1ccccc1` (stereo not shown) [Example 19, N-methyl-3-phenyl-3-(quinolin-5-ylmethoxy)propan-1-amine], the Ki was no less than 3000 nM.

Turning to `CCNCC[C@@H](Oc1cccc2c(=O)n(C)cnc12)c1cccs1` [Example 32, (R)-8-(3-(ethylamino)-1-(thiophen-2-yl)propoxy)-3-methylquinazolin-4(3H)-one], the Ki fell in the range of 100 to 500 nM.

For the compound `CNCC[C@H](Oc1cccc2c1CCCN2C)c1cccs1` [Example 23, (S)—N-methyl-3-((1-methyl-1,2,3,4-tetrahydroquinolin-5-yl)oxy)-3-(thiophen-2-yl)propan-1-amine], the Ki lay in the range of 500 to 3000 nM.

Consider `CNCC[C@H](Oc1cccc2c1ccc(=O)n2C)c1cccs1` [Example 28, (S)-1-methyl-5-(3-(methylamino)-1-(thiophen-2-yl)propoxy)quinolin-2(1H)-one], for which the Ki lay within 500 to 3000 nM.
